Assay results from patent EP4603105A1, “PHARMACEUTICAL COMPOSITION CONTAINING CYCLIC COMPOUND HAVING SELECTIVE KRAS INHIBITORY EFFECT AGAINST HRAS AND NRAS” (CHUGAI SEIYAKU KABUSHIKI KAISHA, priority 2022, dated 2024).
pIC50, pKd: −log10 of the molar value. Read-outs that look alike come from different tables or passages of the source.

How the values were obtained:
[1] = biological target: GDP-bound KRAS wild-type protein (Homo sapiens, UniProt P01116); test: Binding to KRAS by surface plasmon resonance (SPR), dissociation constant KD
Sequence of GDP-bound KRAS wild-type protein (P01116 1-188 isoform P01116-2): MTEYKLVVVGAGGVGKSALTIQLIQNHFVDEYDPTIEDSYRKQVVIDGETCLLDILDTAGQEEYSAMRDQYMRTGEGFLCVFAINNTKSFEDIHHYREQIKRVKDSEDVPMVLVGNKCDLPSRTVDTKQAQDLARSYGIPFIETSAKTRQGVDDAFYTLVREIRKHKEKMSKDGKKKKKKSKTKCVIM
In short: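 GDP-loaded biotinylated Avi-tag RAS proteins (E. coli-expressed) captured on a Biotin CAPture chip at ~100–300 RU; single-cycle kinetics at 30°C, 100 µL/min, 75 s injections of rising compound concentrations. HBS pH 7.4 running buffer with 1 mM DTT, 10 mM MgCl2, 10 µM GDP, 4% DMSO. KD from 1:1 binding fit.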

[2] = biological target: GDP-bound NRAS wild-type protein (Homo sapiens, UniProt P01111); test: Binding to NRAS by surface plasmon resonance (SPR), KD and KD ratio to KRAS
Sequence of GDP-bound NRAS wild-type protein (P01111 whole entry): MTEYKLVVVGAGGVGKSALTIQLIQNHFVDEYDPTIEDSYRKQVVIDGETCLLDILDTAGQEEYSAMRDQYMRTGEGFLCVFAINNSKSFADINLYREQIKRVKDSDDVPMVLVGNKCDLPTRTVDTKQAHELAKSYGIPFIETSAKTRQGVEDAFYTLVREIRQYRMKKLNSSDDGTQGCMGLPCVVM
In short: (§1)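 SPR, 30°C: Avi-biotin RAS·GDP captured via Biotin CAPture (~100–300 RU); running buffer HBS pH 7.4, 1 mM DTT, 10 mM MgCl2, 0.01% Tween 20, 10 µM GDP, 4% DMSO. Single-cycle kinetics, 100 µL/min, 75 s injections; 1:1 model → KD.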

HRAS wild-type protein = HRAS wild-type protein (Homo sapiens, UniProt P01112); test: Binding to HRAS by surface plasmon resonance (SPR), KD and KD ratio to KRAS
Sequence of HRAS wild-type protein (P01112 whole entry): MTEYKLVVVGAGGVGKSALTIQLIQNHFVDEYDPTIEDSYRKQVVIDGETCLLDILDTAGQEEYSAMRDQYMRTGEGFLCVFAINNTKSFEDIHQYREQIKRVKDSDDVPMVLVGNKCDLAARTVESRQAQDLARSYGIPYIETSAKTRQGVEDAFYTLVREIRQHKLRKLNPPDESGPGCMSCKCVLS
In short: as §1

[3] = tested on: human lung cancer strain NCI-H441; test: NCI-H441 cell proliferation inhibitory activity (CellTiter-Glo, 4 days); format: cell-based; settings: read-out: NCl-H441 IC50
In short: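 Proliferation was scored by […] measured after the reagent was added to cultures kept at 37°C in 5% carbon dioxide.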

[4] = ratio of KD for GDP-bound NRAS wild-type protein to KD for KRAS
[5] = ratio of KD for HRAS wild-type protein to KD for KRAS

| Structure (SMILES) | pKd ([1]; 1:1 binding model) | pIC50 ([3]; NCI-H441 cells, 4 days) | pKd ([1]; Single Cycle Kinetics) | pKd ([1]; Single Cycle Kinetics, 1:1 binding model) | pIC50 ([3]; 50% proliferation inhibitory concentration, four days) | NRAS /KRAS [2, 4] | HRAS /KRAS (HRAS wild-type protein; [5]) | NRAS /KRAS ([2]; ratio of KD with respect to GDP-bound NRAS wild-type protein to KD with respect to KRAS) | HRAS /KRAS (HRAS wild-type protein; ratio of KD with respect to HRAS wild-type protein to KD with respect to KRAS) |
| --- | --- | --- | --- | --- | --- | --- | --- | --- | --- |
| CCO[C@@H]1C[C@H]2C(=O)NC3(CC(C)(C)C3)C(=O)N(C)[C@@H](C3CCCC3)C(=O)N(C)[C@H](C(=O)N(C)C)CC(=O)N(C)[C@@H](COC)C(=O)N[C@@H]([C@@H](C)CC)C(=O)N(C3CC3)CC(=O)N(C)[C@H]3C/C=C\CCN(C3=O)[C@@H](CC3CCCCC3)C(=O)N(C)CC(=O)N[C@@H](CCc3ccc(Cl)c(Cl)c3)C(=O)N2C1 [PP2563] | 8.64 | 6.97 | – | – | – | A (a compound having 10 or more and less than 20 is denoted as A) | A (a compound having 10 or more and less than 20 is denoted as A) | – | – |
| CCO[C@@H]1C[C@H]2C(=O)NC3(CC(C)(C)C3)C(=O)N(C)[C@@H](C3CCCC3)C(=O)N(C)[C@H](C(=O)N(CC)CC)CC(=O)N(C)[C@@H](COC)C(=O)N[C@@H]([C@@H](C)CC)C(=O)N(C)CC(=O)N(C)[C@H]3C/C=C\CCN(C3=O)[C@@H](Cc3ccc(C)cc3)C(=O)N(C)CC(=O)N[C@@H](CCc3cc(F)c(C(F)(F)F)c(F)c3)C(=O)N2C1 [PP2403] | 9.66 | 8.14 | – | – | – | A (a compound having 10 or more and less than 20 is denoted as A) | A (a compound having 10 or more and less than 20 is denoted as A) | – | – |
| CCO[C@@H]1C[C@H]2C(=O)NC3(CCC3)C(=O)N(C)[C@@H](C3CCCC3)C(=O)N(C)[C@H](C(=O)N3CCOCC3)CC(=O)N(C)[C@@H](CC)C(=O)N[C@@H]([C@@H](C)CC)C(=O)N(C)CC(=O)N(C)[C@H]3CC[C@@H](C)CN(C3=O)[C@@H](Cc3ccc(C(F)(F)F)cc3)C(=O)N(C)CC(=O)N[C@@H](CCc3cc(F)c(C(F)(F)F)c(F)c3)C(=O)N2C1 [PP1372] | – | – | – | 10.11 | 8.30 | – | – | B (a compound having 3 or more and less than 10 is denoted as B) | B (a compound having 3 or more and less than 10 is denoted as B) |

Second part, led by results:

| pKd ([1]; 1:1 binding model) | pIC50 ([3]; NCI-H441 cells, 4 days) | pKd ([1]; Single Cycle Kinetics) | pKd ([1]; Single Cycle Kinetics, 1:1 binding model) | pIC50 ([3]; 50% proliferation inhibitory concentration, four days) | Structure (SMILES) | NRAS /KRAS [2, 4] | HRAS /KRAS (HRAS wild-type protein; [5]) | NRAS /KRAS ([2]; ratio of KD with respect to GDP-bound NRAS wild-type protein to KD with respect to KRAS) | HRAS /KRAS (HRAS wild-type protein; ratio of KD with respect to HRAS wild-type protein to KD with respect to KRAS) |
| --- | --- | --- | --- | --- | --- | --- | --- | --- | --- |
| – | 8.17 | 9.74 | – | – | CCC[C@H]1C(=O)N[C@@H]([C@@H](C)CC)C(=O)N(C2CC2)CC(=O)N(C)[C@H]2C/C=C\CCN(C2=O)[C@@H](Cc2ccc(C)cc2)C(=O)N(C)CC(=O)N[C@@H](CCc2ccc(C(F)(F)F)c(OC)c2)C(=O)N2CC[C@H](OC)[C@H]2C(=O)N(C)C2(CCC2)C(=O)N(C)[C@@H](C2CCCC2)C(=O)N(C)[C@H](C(=O)N(C)C)CC(=O)N1C [PP3245] | A (a compound having 10 or more and less than 20 is denoted as A) | A (a compound having 10 or more and less than 20 is denoted as A) | – | – |
| – | 7.96 | 9.54 | – | – | CCC[C@H]1C(=O)N[C@@H]([C@@H](C)CC)C(=O)N2CCC[C@H]2C(=O)N(C)[C@H]2C/C(F)=C\CCN(C2=O)[C@@H](Cc2ccc(C)cc2)C(=O)N(C)CC(=O)N[C@@H](CCc2cc(F)c(C(F)(F)F)c(F)c2)C(=O)N2C[C@H](OCC)C[C@H]2C(=O)N(C)C2(CCC2)C(=O)N(C)[C@@H](C2CCCC2)C(=O)N(C)[C@H](C(=O)N(C)C)CC(=O)N1C [PP3526] | B (a compound having 3 or more and less than 10 is denoted as B) | B (a compound having 3 or more and less than 10 is denoted as B) | – | – |
| – | 8.10 | 10.20 | – | – | CCC[C@H]1C(=O)N[C@@H](C2CCCC2)C(=O)N(C)CC(=O)N(C)[C@H]2C/C=C\CCN(C2=O)[C@@H](Cc2ccc(C)cc2)C(=O)N(C)CC(=O)N[C@@H](CCc2ccc(C(F)(F)F)c(Cl)c2)C(=O)N2CC3(CC3)C[C@H]2C(=O)N(C)C2(CCC2)C(=O)N(C)[C@@H](C2CCCC2)C(=O)N(C)[C@H](C(=O)N(C)C)CC(=O)N1C [PP3322] | A (a compound having 10 or more and less than 20 is denoted as A) | B (a compound having 3 or more and less than 10 is denoted as B) | – | – |
